This is an account of results in article PMC4778445, “Measurement of free glucocorticoids: quantifying corticosteroid-binding globulin binding affinity and its variation within and among mammalian species” (Conservation Physiology, 2015).

Experiment in all cases: radioligand saturation binding, dextran-coated charcoal separation
The target of experiment [1] is T1, corticosteroid-binding globulin (CBG), meadow vole (Microtus pennsylvanicus, UniProt Z9TXB6IQC5).
T1 construct: native protein in charcoal-stripped plasma, not purified
T1 sequence (Z9TXB6IQC5 21-398): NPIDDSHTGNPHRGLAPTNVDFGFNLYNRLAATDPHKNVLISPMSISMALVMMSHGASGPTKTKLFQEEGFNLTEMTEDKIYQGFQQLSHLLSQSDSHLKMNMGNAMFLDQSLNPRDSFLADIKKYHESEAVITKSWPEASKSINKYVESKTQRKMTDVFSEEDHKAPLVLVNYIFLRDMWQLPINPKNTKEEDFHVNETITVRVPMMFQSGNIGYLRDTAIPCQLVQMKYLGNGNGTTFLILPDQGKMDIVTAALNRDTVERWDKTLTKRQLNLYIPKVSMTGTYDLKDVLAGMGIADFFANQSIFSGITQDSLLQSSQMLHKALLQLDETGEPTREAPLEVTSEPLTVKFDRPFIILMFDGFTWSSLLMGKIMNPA
To be noted: labelled compound ([1,2,6,7-3H]corticosterone); 37 °C, ≥4 h, PBS with gelatin; separation at 0 °C; plasma 1/50; mean of two runs; error SEM.
Source text: radioligand saturation binding, dextran-coated charcoal separation on corticosteroid-binding globulin (CBG), meadow vole

Experiment [2] concerns the target T2, corticosteroid-binding globulin (CBG), deer mouse (Peromyscus maniculatus, UniProt A0A6J0EC89).
T2 construct: gene Serpina6; native protein in charcoal-stripped plasma, not purified
T2 sequence (A0A6J0EC89 23-402): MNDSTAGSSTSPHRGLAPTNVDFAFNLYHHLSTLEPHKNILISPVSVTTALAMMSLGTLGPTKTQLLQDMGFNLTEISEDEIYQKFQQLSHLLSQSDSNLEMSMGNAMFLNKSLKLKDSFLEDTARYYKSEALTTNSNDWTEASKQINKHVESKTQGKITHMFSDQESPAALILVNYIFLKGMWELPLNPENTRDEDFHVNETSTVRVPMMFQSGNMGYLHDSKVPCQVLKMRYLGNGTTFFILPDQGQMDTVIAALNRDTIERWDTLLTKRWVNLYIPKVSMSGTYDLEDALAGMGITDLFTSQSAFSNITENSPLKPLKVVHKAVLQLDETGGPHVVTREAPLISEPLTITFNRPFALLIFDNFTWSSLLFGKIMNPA
To be noted: labelled compound ([1,2,6,7-3H]corticosterone); 37 °C, ≥4 h, PBS with gelatin; separation at 0 °C; plasma 1/200; error SEM.
Source text: radioligand saturation binding, dextran-coated charcoal separation on corticosteroid-binding globulin (CBG), deer mouse

Experiment [3] deals with T3, corticosteroid-binding globulin (CBG), Arctic wolf (Canis lupus, UniProt A0A8I3MUM2).
T3 construct: gene SERPINA6; native protein in charcoal-stripped serum (Toronto Zoo), not purified
T3 sequence (A0A8I3MUM2 23-404): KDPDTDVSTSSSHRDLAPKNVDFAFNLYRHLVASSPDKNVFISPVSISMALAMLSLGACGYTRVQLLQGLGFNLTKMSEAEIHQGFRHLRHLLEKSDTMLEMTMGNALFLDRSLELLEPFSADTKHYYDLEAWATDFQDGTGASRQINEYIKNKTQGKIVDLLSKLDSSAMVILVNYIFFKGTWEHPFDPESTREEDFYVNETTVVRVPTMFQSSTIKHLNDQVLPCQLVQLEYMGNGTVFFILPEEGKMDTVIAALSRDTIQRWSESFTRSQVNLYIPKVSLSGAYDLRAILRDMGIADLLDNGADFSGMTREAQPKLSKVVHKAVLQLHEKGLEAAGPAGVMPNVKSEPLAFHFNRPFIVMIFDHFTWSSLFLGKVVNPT
To be noted: labelled compound ([1,2,6,7-3H]cortisol); 37 °C, ≥4 h, PBS with gelatin; separation at 0 °C; serum 1/50; non-specific binding subtracted; error SEM.
Source text: radioligand saturation binding, dextran-coated charcoal separation on corticosteroid-binding globulin (CBG), Arctic wolf

In experiment [4] the target is T4, corticosteroid-binding globulin (CBG), Siberian tiger (Panthera tigris, UniProt A0A8C9K299).
T4 construct: native protein in charcoal-stripped serum (Toronto Zoo), not purified
T4 sequence (A0A8C9K299 23-403): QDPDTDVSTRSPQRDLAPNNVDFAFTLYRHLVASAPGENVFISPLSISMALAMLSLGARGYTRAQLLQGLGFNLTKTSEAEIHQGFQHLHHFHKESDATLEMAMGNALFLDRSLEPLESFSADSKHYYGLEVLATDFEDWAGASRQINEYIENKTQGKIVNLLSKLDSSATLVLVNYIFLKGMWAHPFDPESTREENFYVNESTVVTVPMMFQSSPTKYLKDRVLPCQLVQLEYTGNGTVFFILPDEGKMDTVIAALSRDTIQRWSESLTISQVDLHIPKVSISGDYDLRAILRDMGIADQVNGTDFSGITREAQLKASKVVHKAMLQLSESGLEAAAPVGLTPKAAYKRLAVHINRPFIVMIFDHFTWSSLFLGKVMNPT
To be noted: labelled compound ([1,2,6,7-3H]cortisol); 37 °C, ≥4 h, PBS with gelatin; separation at 0 °C; serum 1/50; non-specific binding subtracted; error SEM.
Source text: radioligand saturation binding, dextran-coated charcoal separation on corticosteroid-binding globulin (CBG), Siberian tiger

Experiment [5] deals with T5, corticosteroid-binding globulin (CBG), cheetah (Acinonyx jubatus, UniProt A0A6I9ZWD2).
T5 construct: gene LOC106977455; native protein in charcoal-stripped serum (Toronto Zoo), not purified
T5 sequence (A0A6I9ZWD2 23-404): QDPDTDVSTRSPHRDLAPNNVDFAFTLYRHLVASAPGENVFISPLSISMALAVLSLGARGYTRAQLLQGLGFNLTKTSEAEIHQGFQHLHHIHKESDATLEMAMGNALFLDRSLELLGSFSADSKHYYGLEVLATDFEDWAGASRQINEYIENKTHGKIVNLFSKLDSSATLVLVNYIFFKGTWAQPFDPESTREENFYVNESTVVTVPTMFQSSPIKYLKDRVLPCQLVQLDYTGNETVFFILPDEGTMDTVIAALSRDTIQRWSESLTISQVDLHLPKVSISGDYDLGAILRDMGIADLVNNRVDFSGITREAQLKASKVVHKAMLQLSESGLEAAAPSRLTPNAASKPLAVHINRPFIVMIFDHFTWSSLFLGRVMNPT
To be noted: labelled compound ([1,2,6,7-3H]cortisol); 37 °C, ≥4 h, PBS with gelatin; separation at 0 °C; serum 1/50; error SEM.
Source text: radioligand saturation binding, dextran-coated charcoal separation on corticosteroid-binding globulin (CBG), cheetah

Experiment [6] deals with T6, corticosteroid-binding globulin (CBG), Soay sheep (Ovis aries, UniProt P49920).
T6 construct: gene SERPINA6; native protein in charcoal-stripped plasma, not purified
T6 sequence (P49920 23-430): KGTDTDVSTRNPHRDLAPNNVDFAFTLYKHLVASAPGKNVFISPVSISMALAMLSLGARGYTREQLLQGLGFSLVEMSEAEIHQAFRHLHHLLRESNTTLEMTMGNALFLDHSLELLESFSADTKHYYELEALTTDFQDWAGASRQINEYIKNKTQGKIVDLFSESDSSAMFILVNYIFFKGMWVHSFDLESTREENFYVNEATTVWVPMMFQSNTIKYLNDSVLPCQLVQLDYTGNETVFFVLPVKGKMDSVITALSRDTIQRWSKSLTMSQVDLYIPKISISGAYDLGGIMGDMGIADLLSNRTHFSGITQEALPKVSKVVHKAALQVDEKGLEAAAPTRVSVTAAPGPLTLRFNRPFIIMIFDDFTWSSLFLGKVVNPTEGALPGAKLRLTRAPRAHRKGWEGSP
To be noted: labelled compound ([1,2,6,7-3H]cortisol); 37 °C, ≥4 h, PBS with gelatin; separation at 0 °C; plasma 1/50; error SEM.
Source text: radioligand saturation binding, dextran-coated charcoal separation on corticosteroid-binding globulin (CBG), Soay sheep

Experiment [7] deals with T7, corticosteroid-binding globulin (CBG), Arctic ground squirrel (Urocitellus parryii, UniProt A0A8D2GQE2).
T7 construct: gene SERPINA6; native protein in charcoal-stripped plasma, not purified
T7 sequence (A0A8D2GQE2 23-403): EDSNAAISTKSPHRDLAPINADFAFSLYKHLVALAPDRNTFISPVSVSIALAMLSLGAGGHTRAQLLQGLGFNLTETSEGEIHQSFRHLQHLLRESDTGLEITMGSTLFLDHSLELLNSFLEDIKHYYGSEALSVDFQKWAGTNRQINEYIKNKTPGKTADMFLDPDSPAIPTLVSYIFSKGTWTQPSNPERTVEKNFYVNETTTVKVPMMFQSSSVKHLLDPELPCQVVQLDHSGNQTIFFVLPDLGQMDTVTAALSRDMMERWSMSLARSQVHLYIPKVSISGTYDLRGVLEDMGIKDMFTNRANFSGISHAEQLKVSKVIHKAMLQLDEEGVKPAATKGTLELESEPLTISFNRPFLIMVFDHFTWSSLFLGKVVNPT
To be noted: labelled compound ([1,2,6,7-3H]cortisol); 37 °C, ≥4 h, PBS with gelatin; separation at 0 °C; plasma 1/50; mean of four runs; error SEM.
Source text: radioligand saturation binding, dextran-coated charcoal separation on corticosteroid-binding globulin (CBG), Arctic ground squirrel

Experiment [8] addresses T8, corticosteroid-binding globulin (CBG), Bactrian camel (Camelus bactrianus, UniProt A0A9W3H1V5).
T8 construct: gene LOC105079894; native protein in charcoal-stripped serum (Toronto Zoo), not purified
T8 sequence (A0A9W3H1V5 24-405 limits assumed): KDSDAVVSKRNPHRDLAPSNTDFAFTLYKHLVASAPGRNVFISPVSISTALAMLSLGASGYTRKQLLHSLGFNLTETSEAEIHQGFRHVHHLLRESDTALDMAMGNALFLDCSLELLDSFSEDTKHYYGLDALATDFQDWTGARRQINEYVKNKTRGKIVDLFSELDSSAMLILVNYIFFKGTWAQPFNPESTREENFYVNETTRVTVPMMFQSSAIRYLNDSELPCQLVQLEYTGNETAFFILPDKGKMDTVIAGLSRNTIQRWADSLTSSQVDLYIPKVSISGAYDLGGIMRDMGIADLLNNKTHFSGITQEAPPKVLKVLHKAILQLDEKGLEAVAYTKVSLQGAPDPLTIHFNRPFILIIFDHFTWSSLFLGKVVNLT
To be noted: labelled compound ([1,2,6,7-3H]cortisol); 37 °C, ≥4 h, PBS with gelatin; separation at 0 °C; serum 1/50; non-specific binding subtracted; error SEM.
Source text: radioligand saturation binding, dextran-coated charcoal separation on corticosteroid-binding globulin (CBG), Bactrian camel

For experiment [9], the target named is T9, corticosteroid-binding globulin (CBG), alpaca (Vicugna pacos, UniProt A0A6I9IEG0).
T9 construct: gene SERPINA6; native protein in charcoal-stripped serum (Toronto Zoo), not purified
T9 sequence (A0A6I9IEG0 18-405): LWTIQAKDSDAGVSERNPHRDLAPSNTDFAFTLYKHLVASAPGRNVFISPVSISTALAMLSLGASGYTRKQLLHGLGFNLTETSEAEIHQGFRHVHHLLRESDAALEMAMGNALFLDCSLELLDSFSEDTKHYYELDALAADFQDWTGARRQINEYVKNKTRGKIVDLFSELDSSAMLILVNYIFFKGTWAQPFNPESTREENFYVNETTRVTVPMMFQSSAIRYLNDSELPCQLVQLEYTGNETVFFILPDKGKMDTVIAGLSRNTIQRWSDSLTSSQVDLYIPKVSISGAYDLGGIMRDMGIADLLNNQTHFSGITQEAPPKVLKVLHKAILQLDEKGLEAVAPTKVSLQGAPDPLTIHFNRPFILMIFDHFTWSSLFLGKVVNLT
To be noted: labelled compound ([1,2,6,7-3H]cortisol); 37 °C, ≥4 h, PBS with gelatin; separation at 0 °C; serum 1/50; non-specific binding subtracted; error SEM.
Source text: radioligand saturation binding, dextran-coated charcoal separation on corticosteroid-binding globulin (CBG), alpaca

As a reminder, the Kd is the equilibrium constant for the complex coming apart. A higher Kd goes with lower affinity. For the compound `C[C@]12C[C@H](O)[C@H]3[C@@H](CCC4=CC(=O)CC[C@@]43C)[C@@H]1CC[C@@H]2C(=O)CO` [B, corticosterone], the Kd amounted to 5.4 ± 1.2 nM in experiment [1] and 4.9 ± 0.61 nM in [2].
`C[C@]12CCC(=O)C=C1CC[C@@H]1[C@@H]2[C@@H](O)C[C@@]2(C)[C@H]1CC[C@]2(O)C(=O)CO` [F, cortisol]: the Kd was found to be 0.8 ± 0.11 nM in experiment [3]; 0.7 ± 0.19 nM in [4]; 8 ± 2.4 nM in experiment [5]; 1.7 ± 0.55 nM in [6]; 4 ± 0.4 nM in experiment [7]; 1 ± 0.16 nM in [8]. In addition, the affinity in [9], expressed as Kd, was 0.6 ± 0.15 nM.
